{"source": "patent US20100267750A1", "about": "“METHODS AND COMPOSITIONS FOR TREATING PAIN” (priority 2005, published 2010)", "key": {"[1]": {"system": "CFA induced thermal hyperalgesia", "assay": "CFA model of inflammatory pain", "experimental": "FIG. 4 summarizes data obtained following testing of Compound 200 in the CFA model. Naive rats were pretested for sensitivity to a heat stimulus in the Hargreaves apparatus. The next day, 100 μL of complete Freund's adjuvant (CFA) was injected into the plantar surface of the right hindpaw. Two days later, in the morning, the rats were again pretested. In the afternoon, rats were injected with either vehicle control or with drug (TRPA1 inhibitor 200 or the non-steroidal anti-inflammatory diclofenac). Drugs or vehicle were injected intraperitoneally, and 45 minutes later rats were tested for hyperalgesia by applying the heat source to the CFA injected and uninjected hindpaw and measuring latency to withdrawal."}, "[2]": {"system": "bladder pressure in BOO rats", "assay": "Partial bladder outlet obstruction (BOO) model of incontinence", "settings": "intravesical infusion", "excerpt": "Efficacy of the varying doses of TRPA1 inhibitory compound were compared to controls administered excipients alone (sham control). Efficacy was also compared to rats administered a positive control, such as atropine.\nFemale Sprague Dawley rats were used in these studies. Rats underwent surgical partial bladder outlet obstruction (BOO) or sham surgery. Five weeks after BOO (or sham) surgery, an intravesical catheter was surgically implanted into the dome of the bladder for conducting urodynamic studies. One week after catheter implantation (6 weeks after BOO or sham), urodynamic studies began. […] An analytic balance beneath the wire-bottom animal cage measured the amount of urine voided during continuous cystometry. […]\nFor each CMG cycle, the following parameters were assessed: infused volume (the amount of saline or drug infused for each CMG cycle); void volume (the amount of urine voided by the animal for each CMG cycle); minimum pressure (minimum pressure during filling); threshold pressure (pressure prior to micturition when bladder pressure begins to rise steeply); average pressure (average pressure during filling and before threshold); maximum pressure; intermicturition interval (time between two subsequent voiding events); urine flow rate index."}, "[3]": {"system": "bradykinin induced tactile allodynia", "assay": "Bradykinin induced pain model", "type": "in vivo, rat", "experimental": "As outlined above, the bradykinin model involves an intraplantar injection of a 5 ng/uL solution of bradykinin. Injection of the bradykinin solution typically causes a rapid sensitization. Sensitization is measured by assessing the thermal escape latency of the injected paw in response to a mild thermal stimulus delivered by a modified Hargreaves apparatus. FIGS. 1a and 1b summarize data obtained following testing of Compound 200 in the bradykinin model. This study examined the antinociceptive effects of 200 mg/kg, 50 mg/kg, and 12.5 mg/kg intraperitoneal Compound 200 on bradykinin induced tactile allodynia. […] Inhibitor or vehicle were injected intraperitoneally (IP). […] Throughout the study, general behavioral assessments were made during each period of observation. Observations included tactile allodynia (vocalization/agitation induced by light touch applied to the body surface), spontaneous vocalization, biting and chewing of body surface, loss of hind limb placing and stepping reflex, loss of hind limb weight bearing, and loss of righting reflex. Additionally, mechanical allodynia was assessed and measured. The results provided in FIGS. 1a and 1b are based on assessment of mechanical allodynia."}, "[4]": {"system": "carrageenan-induced inflammation (paw volume)", "assay": "Carrageenan model of acute inflammatory pain", "type": "in vivo, rat", "settings": "IP, 30-60 minutes before testing", "experimental": "In this study, the drug administered was either a TRPA1 inhibitor or the non-steroidal anti-inflammatory diclofenac. Following administration of both carrageenan and drug or vehicle control, paw volume was measured and used to assess decreased inflammation."}, "[5]": {"system": "formalin induced paw flinching", "assay": "Formalin model of pain", "type": "in vivo, rat", "settings": "2% formalin intraplantar, drug 15 min before", "experimental": "As outlined above, the formalin model involves injection of a formalin solution intradermally or […]. Injection of formalin solution invokes a biphasic response, and thus provides a model for both nociceptive and inflammatory pain. The formalin model can be used to evaluate the effectiveness of an exemplary TRPA1 inhibitor in the treatment of pain. […] Briefly, the following protocol was followed. Male Holtzmann rats received intraplantar injections of 50 μL of 2% formalin. Paw flinching was detected by an automated sensor detecting movement of a small metal band placed on the injected hind paw. Drug or vehicle was administered approximately 15 minutes prior to the injection of formalin. The animal's response to injection of the irritant was measured by counting flinches per minutes during the Early Phase (the first 5 minutes following injection of formalin), during the Late Phase (approximately 30 minutes after injection of formalin), and during the intervening pain free phase. In FIG. 2, the right most bar for each data set (Early Phase and Late Phase) represents administration of vehicle alone and the left most bar represents administration of gabapentin. […]"}, "[6]": {"assay": "Plasma levels / pharmacokinetics in male Sprague-Dawley rat", "type": "in vivo", "settings": "oral suspension 12 mg/kg", "experimental": "Compound 200 plasma levels were determined via HPLC/MS/MS following a single intravenous bolus dose of 0.9 mg/kg, an intraperitoneal dose of 12 mg/kg (suspension), and an oral dose of 12 mg/kg (suspension) in the male Sprague-Dawley rat. […] For intraperitoneal administration, Compound 200 was formulated as a uniform suspension in CMC (carboxymethylcellulose) at a target concentration of 1 mg/mL and administered at a dose volume of 10 mL/kg. For oral administration, Compound 200 was formulated as a uniform suspension in CMC (carboxymethylcellulose), at a target concentration of 1 mg/mL, administered by gavage, at a dose volume of 10 mL/kg, to the conscious, fasted, male Sprague-Dawley rat."}, "[7]": {"target": "T1, hTRPA1 (Homo sapiens, UniProt O75762, K186N)", "T1 construct": "expressed in transfected cells; host or cells: HEK293/TREx (Invitrogen), stably transfected, tetracycline-induced", "T1 sequence (O75762 whole entry K186N)": "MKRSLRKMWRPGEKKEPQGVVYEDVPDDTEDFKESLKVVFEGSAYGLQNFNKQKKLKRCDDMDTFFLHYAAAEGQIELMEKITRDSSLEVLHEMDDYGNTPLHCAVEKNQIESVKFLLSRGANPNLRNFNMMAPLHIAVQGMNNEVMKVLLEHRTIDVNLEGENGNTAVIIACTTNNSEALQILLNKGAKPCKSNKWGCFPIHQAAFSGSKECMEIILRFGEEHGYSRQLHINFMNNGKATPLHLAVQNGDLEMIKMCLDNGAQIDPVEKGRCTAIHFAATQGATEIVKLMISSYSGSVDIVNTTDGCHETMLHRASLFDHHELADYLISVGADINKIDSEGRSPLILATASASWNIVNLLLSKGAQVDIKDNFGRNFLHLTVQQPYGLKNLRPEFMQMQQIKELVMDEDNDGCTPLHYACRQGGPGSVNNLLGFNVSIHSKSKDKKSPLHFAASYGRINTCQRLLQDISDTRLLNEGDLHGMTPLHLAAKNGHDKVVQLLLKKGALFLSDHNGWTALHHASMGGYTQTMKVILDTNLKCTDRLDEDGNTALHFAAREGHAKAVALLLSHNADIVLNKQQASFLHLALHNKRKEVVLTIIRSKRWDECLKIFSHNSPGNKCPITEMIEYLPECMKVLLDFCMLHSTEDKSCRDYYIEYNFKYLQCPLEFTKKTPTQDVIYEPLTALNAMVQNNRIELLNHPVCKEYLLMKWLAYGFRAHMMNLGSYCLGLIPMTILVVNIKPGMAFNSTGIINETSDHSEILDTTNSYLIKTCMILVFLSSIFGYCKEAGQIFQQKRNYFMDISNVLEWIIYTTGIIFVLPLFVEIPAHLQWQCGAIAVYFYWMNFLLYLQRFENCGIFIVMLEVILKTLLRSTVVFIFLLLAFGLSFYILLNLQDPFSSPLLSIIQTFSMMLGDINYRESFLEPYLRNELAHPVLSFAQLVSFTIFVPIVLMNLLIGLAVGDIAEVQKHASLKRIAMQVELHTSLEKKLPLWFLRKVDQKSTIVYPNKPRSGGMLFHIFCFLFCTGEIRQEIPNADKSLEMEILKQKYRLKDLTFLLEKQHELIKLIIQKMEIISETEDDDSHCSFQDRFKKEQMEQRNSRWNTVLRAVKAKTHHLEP", "assay": "hTRPA1 Fluo4 calcium flux assay in HEK293/TREx cells", "type": "cell-based", "settings": "Table 2; read-out: hTRPA1 Fluor IC50", "source_text": "The assay depended on detection of the rise in intracellular Ca^2+ concentration ([Ca^2+]i) following channel activation in cells inducibly expressing the TRPA1 channel. Ca^2+ rise was quantified with the use of fluorescent Ca^2+ indicators that were loaded into cells and thereafter indicated the [Ca^2+]i. Ca^2+ influx followed activation of the TRPA1 channel. Compounds inhibiting the [Ca^2+]i rise were considered hits for further investigation.\nThese cells were maintained in the growth medium recommended by the manufacturer supplemented with 100 μg/ml hygromycin to promote retention of the TRPA1 construct. After growing to near confluency, cells were plated at a density of ˜25,000 cells/well in 384 well CellBind plates (Corning) in the presence of 1 μg/ml tetracycline, and allowed to grow for 20-30 hrs. A nearly confluent monolayer resulted. […] These controls defined a screening window, and “hits” were defined as those compounds inhibiting the fluorescence response by at least 40%. IC50 values were determined for compounds defined as “hits.” The Fluo4 cell-based fluorescence assay was used to determine the intracellular Ca^2+ concentration in the presence of varying drug concentration. […]"}}, "note": "pIC50: −log10 of the molar value."}
{"smiles": "CC(C)c1ccc(NC(=O)Cn2cnc3c2c(=O)n(C)c(=O)n3C)cc1", "note": "[Compound 200, 2-(1,3-dimethyl-2,6-dioxo-1,2,3,6-tetrahydropurin-7-yl)-N-(4-isopropylphenyl)acetamide]", "values": [{"measurement": "control paw (uninflamed) sensation", "setting": "[1]; IP, tested 45 minutes later", "value": "not affected"}, {"measurement": "efficacy compared with diclofenac", "setting": "[1]; IP, tested 45 minutes later", "value": "superior to diclofenac"}, {"measurement": "thermal hyperalgesia, CFA injected paw", "setting": "[1]; IP, tested 45 minutes later", "value": "reduced thermal hyperalgesia"}, {"measurement": "toxicity", "setting": "[1]; rat, in vivo, 45 min", "value": "without toxicity"}, {"measurement": "maximum bladder pressure", "setting": "[2]", "value": "decreased"}, {"measurement": "threshold bladder pressure", "setting": "[2]", "value": "decreased"}, {"measurement": "effect on mechanical threshold after bradykinin injection", "setting": "[3]; IP 12.5, 50, 200 mg/kg, 30 min before bradykinin", "value": "dose dependent effect"}, {"measurement": "behavioral parameters", "setting": "[3]; IP doses up to 200 mg/kg", "value": "no changes"}, {"measurement": "sedation", "setting": "[3]; highest dose (200 mg/kg IP)", "value": "only mild sedation was observed in 3 of 8 rats"}, {"measurement": "paw volume (inflammation)", "setting": "[4]", "value": "decreased paw volume"}, {"measurement": "flinches per minute, Early Phase", "setting": "[5]", "value": "substantially reduced"}, {"measurement": "flinches per minute, Late Phase", "setting": "[5]", "value": "substantially reduced"}, {"measurement": "time at which Cmax occurred", "setting": "[6]", "value": 45, "unit": "min"}]}
{"smiles": "COC(=O)c1ccc(C)c(NC(=O)Cn2cnc3c2c(=O)n(C)c(=O)n3C)c1", "note": "[Compound 346]", "values": [{"measurement": "pIC50", "setting": "[7]", "value": "≥ 4.52"}]}
